Measurements as given in ChEMBL document CHEMBL5143574, “Unraveling the anti-virulence potential and antifungal efficacy of 5-aminotetrazoles using the zebrafish model of disseminated candidiasis” (Eur J Med Chem, 2022).
Converted amounts (≈) assume the structure as drawn. The source made the active and inactive calls. The rule behind the calls is not given here.

Assays:
[1] = system: Candida albicans; experiment: Anti-virulence activity against Candida albicans SC5314 assessed as inhibition of fungal filamentation by measuring reduction in hyphae formation in YPS medium at 5 uM incubated for 3 to 5 days by stereomicroscopic analysis; format: functional, organism-based; conditions: time 3-5 day
[2] = system: Candida albicans; experiment: Anti-virulence activity against Candida albicans SC5314 assessed as inhibition of fungal filamentation by measuring reduction in hyphae formation in Lee medium at 5 uM incubated for 3 to 5 days by stereomicroscopic analysis; format: functional, organism-based; conditions: time 3-5 day
[3] = system: Candida albicans; experiment: Antifungal activity against Candida albicans SC5314 assessed as inhibition of fungal growth incubated for 24 hrs by broth microdilution assay; format: functional
[4] = system: Candida albicans; experiment: Anti-virulence activity against Candida albicans SC5314 assessed as inhibition of fungal filamentation by measuring reduction in hyphae formation in RPMI medium at 5 uM incubated for 3 to 5 days by stereomicroscopic analysis; format: functional, organism-based; conditions: time 3-5 day
[5] = system: Candida albicans; experiment: Anti-virulence activity against Candida albicans SC5314 assessed as inhibition of fungal filamentation by measuring reduction in hyphae formation in YPS plus uridine medium at 5 uM incubated for 3 to 5 days by stereomicroscopic analysis; format: functional, organism-based; conditions: time 3-5 day
[6] = system: Candida albicans; experiment: Anti-virulence activity against Candida albicans SC5314 assessed as inhibition of fungal filamentation by measuring reduction in hyphae formation in Spider medium at 5 uM incubated for 3 to 5 days by stereomicroscopic analysis; format: functional, organism-based; conditions: time 3-5 day
[7] = Toxicity in zebrafish embryos assessed as mortality treated at 6 hpf and measured at 120 hpf by stereomicroscopic analysis; parameters: species or system Danio rerio; conditions: in vivo
[8] = Toxicity in zebrafish embryos assessed as toxic responses at 200 uM treated at 6 hpf and measured at 120 hpf by stereomicroscopic analysis; parameters: species or system Danio rerio; conditions: in vivo, 24 h
[9] = Toxicity against zebrafish embryo infected with 53-75 RFP expressing cells of Candida albicans M137 assessed as mortality at 2.5 to 10 uM treated at 1 hr post-infection and measured on day 4 post-infection; parameters: species or system Danio rerio; conditions: 96 h, dose 2.5-10 µM, time 4 day
[10] = system: Candida albicans; experiment: Anti-virulence activity against Candida albicans SC5314 assessed as inhibition of fungal filamentation by measuring reduction in hyphae formation in GlcNAc medium upto 10 uM incubated for 3 to 5 days by stereomicroscopic analysis; format: functional, organism-based; conditions: time 3-5 day
[11] = system: Candida albicans; experiment: Anti-virulence activity against Candida albicans SC5314 assessed as inhibition of fungal filamentation by measuring reduction in hyphae formation in SLAD medium upto 10 uM incubated for 3 to 5 days by stereomicroscopic analysis; format: functional, organism-based; conditions: time 3-5 day
[12] = system: Candida albicans; experiment: Anti-virulence activity against Candida albicans SC5314 assessed as inhibition of fungal filamentation by measuring reduction in hyphae formation in YPS plus uridine medium upto 10 uM incubated for 3 to 5 days by stereomicroscopic analysis; format: functional, organism-based; conditions: time 3-5 day
[13] = system: Candida albicans; experiment: Anti-virulence activity against Candida albicans SC5314 assessed as inhibition of fungal filamentation by measuring reduction in hyphae formation in Spider medium upto 10 uM incubated for 3 to 5 days by stereomicroscopic analysis; format: functional, organism-based; conditions: time 3-5 day
[14] = system: Candida albicans; experiment: Anti-virulence activity against Candida albicans SC5314 assessed as inhibition of fungal filamentation by measuring reduction of hyphae formation in RPMI medium upto 10 uM incubated for 3 to 5 days by stereomicroscopic analysis; format: functional, organism-based; conditions: time 3-5 day
[15] = system: Candida albicans; experiment: Anti-virulence activity against Candida albicans SC5314 assessed as inhibition of fungal filamentation by measuring reduction in hyphae formation in YPS medium upto 10 uM incubated for 3 to 5 days by stereomicroscopic analysis; format: functional, organism-based; conditions: time 3-5 day
[16] = system: Candida albicans; experiment: Anti-virulence activity against Candida albicans SC5314 assessed as inhibition of fungal filamentation by measuring reduction in hyphae formation in Lee medium upto 10 uM incubated for 3 to 5 days by stereomicroscopic analysis; format: functional, organism-based; conditions: time 3-5 day
[17] = system: Candida albicans; experiment: Anti-virulence activity against Candida albicans SC5314 assessed as inhibition of fungal filamentation by measuring reduction of hyphae formation in YPS plus uridine medium at 1.3 uM incubated for 3 to 5 days by stereomicroscopic analysis; format: functional, organism-based; conditions: time 3-5 day
[18] = system: Candida albicans; experiment: Anti-virulence activity against Candida albicans SC5314 assessed as inhibition of fungal filamentation by measuring reduction of hyphae formation in RPMI medium at 1.3 uM incubated for 3 to 5 days by stereomicroscopic analysis; format: functional, organism-based; conditions: time 3-5 day
[19] = system: Candida albicans; experiment: Anti-virulence activity against Candida albicans SC5314 assessed as inhibition of fungal filamentation by measuring reduction of hyphae formation in Spider medium at 1.3 uM incubated for 3 to 5 days by stereomicroscopic analysis; format: functional, organism-based; conditions: time 3-5 day
[20] = system: Candida albicans; experiment: Anti-virulence activity against Candida albicans SC5314 assessed as inhibition of fungal filamentation by measuring reduction of hyphae formation in Lee medium at 1.3 uM incubated for 3 to 5 days by stereomicroscopic analysis; format: functional, organism-based; conditions: time 3-5 day
[21] = system: Candida albicans; experiment: Anti-virulence activity against Candida albicans SC5314 assessed as inhibition of fungal filamentation by measuring reduction of hyphae formation in SLAD medium at 1.3 uM incubated for 3 to 5 days by stereomicroscopic analysis; format: functional, organism-based; conditions: time 3-5 day
[22] = system: Candida albicans; experiment: Anti-virulence activity against Candida albicans SC5314 assessed as inhibition of fungal filamentation by measuring reduction of hyphae formation in YPS medium at 1.3 uM incubated for 3 to 5 days by stereomicroscopic analysis; format: functional, organism-based; conditions: time 3-5 day
[23] = system: Candida albicans; experiment: Anti-virulence activity against Candida albicans SC5314 assessed as inhibition of fungal filamentation by measuring reduction of hyphae formation in GlcNAc medium at 1.3 uM incubated for 3 to 5 days by stereomicroscopic analysis; format: functional, organism-based; conditions: time 3-5 day
[24] = Hepatotoxicity in zebrafish embryos assessed as liver darkening at 25 uM treated at 6 hpf and measured at 120 hpf by stereomicroscopic analysis; format: toxicity, Danio rerio; conditions: in vivo

## c1ccc(Nc2nnnn2-c2ccccc2)cc1
[1]
  Activity: Active
[2]
  Activity: Active
[3]
  MIC: 194 µM (≈ 46 µg/mL)
[4]
  Activity: Active
[5]
  Activity: Active
[6]
  Activity: Active

## Clc1ccc(Nc2nnnn2Cc2ccccc2)cc1
[3]
  MIC: > 200 µM
[7]
  LC50: > 200 µM

## c1ccc(Nc2nn[nH]n2)cc1
[8]
  Activity: Non-Toxic
[3]
  MIC: > 200 µM
[7]
  LC50: > 200 µM

## O=Cc1ccc(Nc2nnnn2Cc2ccccc2)cc1
[1]
  Activity: Active
[2]
  Activity: Active
[3]
  MIC: > 200 µM
[4]
  Activity: Active
[5]
  Activity: Active
[6]
  Activity: Active
[7]
  LC50: > 200 µM

## Nc1nnn[nH]1
[8]
  Activity: Non-Toxic
[1]
  Activity: Active
[2]
  Activity: Active
[3]
  MIC: > 200 µM
[4]
  Activity: Active
[9]
  Activity: Non-Toxic
[5]
  Activity: Active
[6]
  Activity: Active
[7]
  LC50: > 200 µM

## CCCn1nnc(Nc2ccccc2)n1
[1]
  Activity: Active
[2]
  Activity: Active
[3]
  MIC: > 200 µM
[4]
  Activity: Active
[5]
  Activity: Active
[6]
  Activity: Active
[7]
  LC50: > 200 µM

## CCCn1nnnc1Nc1ccccc1
[1]
  Activity: Active
[2]
  Activity: Active
[3]
  MIC: > 200 µM
[4]
  Activity: Active
[5]
  Activity: Active
[6]
  Activity: Active
[7]
  LC50: > 200 µM

## c1ccc(Nc2nnn(CCC34CC5CC(CC(C5)C3)C4)n2)cc1
[1]
  Activity: Active
[2]
  Activity: Active
[3]
  MIC: > 200 µM
[4]
  Activity: Active
[5]
  Activity: Active
[6]
  Activity: Active
[7]
  LC50: > 200 µM

## Cc1cc(Cl)ccc1Nc1nnnn1Cc1ccccc1
[3]
  MIC: 6.4 µM (≈ 1.92 µg/mL)

## CN(C)CCCNc1nccc(Nc2nnnn2Cc2ccccc2)n1
[3]
  MIC: > 200 µM
[7]
  LC50: > 200 µM

## O=[N+]([O-])c1ccc(Nc2nnnn2Cc2ccccc2)cc1
[3]
  MIC: > 200 µM
[7]
  LC50: > 200 µM

## CCCn1nnc(N)n1
[3]
  MIC: > 200 µM
[7]
  LC50: > 200 µM

## COc1ccc(Nc2nnnn2Cc2ccccc2)cc1
[1]
  Activity: Active
[2]
  Activity: Active
[3]
  MIC: > 200 µM
[4]
  Activity: Active
[5]
  Activity: Active
[6]
  Activity: Active
[7]
  LC50: > 200 µM

## N#Cc1ccc(Nc2nnnn2Cc2ccccc2)cc1
[3]
  MIC: > 200 µM
[7]
  LC50: > 200 µM

## c1ccc(Cn2nnnc2Nc2ccccc2)cc1
[10]
  Activity: Active
[11]
  Activity: Active
[12]
  Activity: Active
[3]
  MIC: > 200 µM
[13]
  Activity: Active
[14]
  Activity: Active
[15]
  Activity: Active
[16]
  Activity: Active
[7]
  LC50: > 200 µM

## COC(=O)c1cccc(Nc2nnnn2Cc2ccccc2)c1
[3]
  MIC: 35.4 µM (≈ 11 µg/mL)

## Nc1nnn(CCC23CC4CC(CC(C4)C2)C3)n1
[10]
  Activity: Active
[17]
  Activity: Active
[11]
  Activity: Active
[18]
  Activity: Active
[12]
  Activity: Active
[3]
  MIC: > 200 µM
[13]
  Activity: Active
[19]
  Activity: Active
[14]
  Activity: Active
[20]
  Activity: Active
[15]
  Activity: Active
[21]
  Activity: Active
[16]
  Activity: Active
[22]
  Activity: Active
[23]
  Activity: Active
[7]
  LC50: > 200 µM

## CCCn1nnnc1Nc1ccnc(Cl)n1
[10]
  Activity: Active
[11]
  Activity: Active
[12]
  Activity: Active
[3]
  MIC: > 200 µM
[13]
  Activity: Active
[14]
  Activity: Active
[15]
  Activity: Active
[16]
  Activity: Active
[7]
  LC50: > 200 µM

## Nc1nnn(Cc2ccccc2)n1
[3]
  MIC: > 200 µM
[7]
  LC50: > 200 µM

## Nc1nnnn1Cc1ccccc1
[1]
  Activity: Active
[2]
  Activity: Active
[3]
  MIC: > 200 µM
[4]
  Activity: Active
[5]
  Activity: Active
[6]
  Activity: Active
[7]
  LC50: > 200 µM

## c1ccc(Cn2nnnc2Nc2cccnc2)cc1
[3]
  MIC: > 200 µM
[7]
  LC50: > 200 µM

## c1ccc(Cn2nnc(Nc3ccccc3)n2)cc1
[1]
  Activity: Active
[2]
  Activity: Active
[3]
  MIC: > 200 µM
[4]
  Activity: Active
[5]
  Activity: Active
[6]
  Activity: Active
[7]
  LC50: > 200 µM

## Nc1nnnn1-c1ccccc1 [FENAMOLE]
[1]
  Activity: Active
[2]
  Activity: Active
[3]
  MIC: > 200 µM
[4]
  Activity: Active
[5]
  Activity: Active
[6]
  Activity: Active
[7]
  LC50: > 200 µM

## CCCn1nnnc1N
[1]
  Activity: Active
[2]
  Activity: Active
[3]
  MIC: > 200 µM
[4]
  Activity: Active
[9]
  Activity: Non-Toxic
[5]
  Activity: Active
[6]
  Activity: Active
[7]
  LC50: > 200 µM

## Clc1cccc(Nc2nnnn2Cc2ccccc2)c1
[3]
  MIC: > 200 µM
[7]
  LC50: > 200 µM

## CC(=O)c1ccc(Nc2nnnn2Cc2ccccc2)cc1
[3]
  MIC: > 200 µM
[7]
  LC50: > 200 µM

## Clc1nccc(Nc2nnnn2Cc2ccccc2)n1
[3]
  MIC: 35.4 µM (≈ 10.2 µg/mL)
[24]
  Activity: Toxic
